{
  "source": "patent US20190099413A1",
  "about": "“DRUG FOR CANCER THERAPY CHARACTERIZED IN THAT AXL INHIBITOR AND IMMUNE CHECKPOINT INHIBITOR ARE ADMINISTERED IN COMBINATION” (ONO PHARMACEUTICAL CO., LTD., priority 2016, published 2019)",
  "test_system": "mouse colon cancer cell line MC38",
  "assay": "Anti-tumor action on mouse colon cancer cell line MC38 subcutaneous cancer-bearing model",
  "format": "in vivo",
  "settings": "for average volume of tumors on day 14: C57/BL6 mice; for Number of cases where tumor was eliminated: observed until 28th day, cases/n; for mice in which cancer had been eliminated: single administration or combined use with 4H2",
  "method": "Biological Example 1: Evaluation of Anti-Tumor Action by Combined Use of Compound A and Anti-PD-1 Antibody on Mouse Colon Cancer Cell Line MC38 Subcutaneous Cancer-Bearing Model (In Vivo)\nFor the compound A, mouse feed CRF-1 containing 0.0013% or 0.013% compound A was manufactured by Oriental Yeast Co., Ltd. so as to be administered at a dose of 2 or 20 mg/kg/day via diet. 4H2 as the anti-mouse PD-1 antibody, which had been prepared in KITAYAMA LABES CO., LTD., was obtained. C57/BL6 mouse colon cancer cell line MC38 was subcutaneously transplanted into dorsal parts of […] syngeneic mice (C57/BL6, female, 6 weeks old (Charles River Laboratories Japan, Inc.)) to produce MC38 subcutaneous cancer-bearing mice. On the day when the average of tumor volumes reached 150 mm^3, group assignment was carried out based on the tumor volumes (the day on which administration was started was defined as Day 0). To the MC38 subcutaneous cancer-bearing mice, PBS (on days 0, 6, 12, 18, and 24, intraperitoneal administration, n=9), 4H2 (on Day 0, 20 mg/kg/day and on days 6, 12, 18, and 24, 10 mg/kg/day, intraperitoneal administration, n=8), the compound A (on days 0 to 28, 2 mg/kg, administration via diet (n=9)), the compound A (on days 0 to 28, 20 mg/kg, administration via diet (n=9)), combined use of 4H2 and the compound A (compound A, 2 mg/kg (n=9)), and combined use of 4H2 and the compound A (compound A, 20 mg/kg (n=9)) were administered. Change of the volume of tumor was observed continuously until the 28th day. Note here that, from the viewpoint of the animal ethics, a mouse whose tumor exceeded 3000 mm^3 in volume was euthanatized, and evaluation for the group to which the euthanatized mouse belonged was stopped at this point.",
  "data": [
    {"smiles": "COc1cc2nccc(Oc3ccc(NC(=O)c4cc5c(n(-c6ccccc6)c4=O)CCCC5=O)nc3)c2cc1OC", "note": "[Compound A, N-{5-[(6,7-dimethoxy-4-quinolinyl)oxy]-2-pyridinyl}-2,5-dioxo-1-phenyl-1,2,5,6,7,8-hexahydro-3-quinolinecarboxamide]", "values": [
      {"measurement": "average volume of tumors on day 14", "setting": "compound A 2 mg/kg via diet days 0 to 28, alone or combined with 4H2 (20 then 10 mg/kg/day i.p.)", "value": 1379.5, "unit": "mm^3"},
      {"measurement": "Number of cases where tumor was eliminated", "setting": "compound A 2 mg/kg via diet days 0 to 28, alone or combined with 4H2", "value": "1/9"},
      {"measurement": "mice in which cancer had been eliminated", "setting": "compound A 2 mg/kg", "value": "one"},
      {"measurement": "average volume of tumors on day 14", "setting": "compound A 20 mg/kg via diet days 0 to 28, alone or combined with 4H2 (20 then 10 mg/kg/day i.p.)", "value": 639.3, "unit": "mm^3"},
      {"measurement": "Number of cases where tumor was eliminated", "setting": "compound A 20 mg/kg via diet days 0 to 28, alone or combined with 4H2", "value": "1/9"},
      {"measurement": "mice in which cancer had been eliminated", "setting": "compound A 20 mg/kg", "value": "one"}
    ]}
  ]
}
